Patent US8507488B2, “Fused nitrogen containing heterocycles and compositions thereof as kinase inhibitors” (IRM LLC, priority 2008, dated 2013)

Assays:
[1] = test system: parental BaF3 cells; assay: Proliferation of parental (untransformed) Ba/F3 cells maintained with IL3; type: cell-based, murine; conditions: Mus musculus, BaF3, parental Ba/F3 cells; read-out: Ba/F3 IC 50
Procedure: (§1) Test compounds were dissolved in DMSO (10 mM) and transferred into 1.4 mL flat bottom or V-shaped Matrix tubes carrying a unique 2D matrix chip by individual compound hubs. The numbers of these chips were distinctively linked to the individual compound identification numbers. The stock solutions were stored at −20° C. if not used immediately. For the test procedure the vials were defrosted and identified by a scanner whereby a working sheet is generated that guides the subsequent working steps.
(§2) Compound dilutions were made in 384 well plates. This format enabled the assay of maximally 28 individual test compounds at 12 concentrations (single points) including 2 reference compounds. The dilution protocol included the production of pre-dilution plates, master plates and assay plates: • Compound plates: 30 μL of individual compound (10 mM) DMSO solution including standard compound were transferred into columns 1 and 13 of a 384 well plate. 20 μL of DMSO were added to the rest of the wells and the compounds were serially diluted (1:3) by transferring 10 μL from a well in column 1 or 13 to the next well in column 2 or 14 respectively and successively with the help of a Minitrack robot. • Assay plates: Identical assay plates were then prepared by adding […] each of compound dilutions of the compound plates into 384-well “assay plates”. In the following the compounds were mixed with 50 μL of assays components (cells or enzyme) and tested for their inhibitory activity.
(§3) The cell line used is the luciferase expressing Ba/F3 murine hematopoietic progenitor cell line transformed with human Tel-TrkA, Tel-TrkB or Tel-TrkC cDNAs (Ba/F3 EN A/B/C). These cells maintained in RPMI/10% fetal bovine serum (RPMI/FCS) supplemented with penicillin 50 mg/mL, streptomycin 50 mg/mL and L-glutamine […]. Untransformed Ba/F3 cells were similarly maintained with the addition 5 ng/ml of murine recombinant IL3. 50 μl of a Ba/F3 or Ba/F3 EN A/B/C cell suspension were plated in Greiner 384 well microplates (white)) at a density of 2000 cells per well. 50 nl of serially diluted test compound (10-0.0001 mM in DMSO solution) is added to each well. The cells were incubated for 48 hours at 37° C., 5% CO2. 25 μl of Bright Glo® (Promega) luciferase substrate is added to each well. The emited luminiscence is quantified using the ACQUEST™ luminescence system (Molecular Devices). IC50 values were calculated by linear regression analysis of the percentage inhibition of each compound at 12 concentrations.

[2] = test system: KM12 luc; assay: KM12 luc cell proliferation assay (Table 8); type: cell-based; conditions: KM12 luc cells; read-out: KM12 luc IC 50
[3] = target: T1, Tel-TrkB (Homo sapiens, UniProt Q16620); assay: Inhibition of proliferation of Ba/F3 cells expressing Tel-TrkB (BaF3/Tel-TrkB); type: cell-based; conditions: Ba/F3 Tel-TrkB cells; read-out: Ba/F3 Tel-TrkB IC 50
T1 construct: dimerization domain of Tel (ETV6) transcription factor (fusion partner, human ETV6 P41212); expressed in transfected cells; host or cells: luciferase expressing Ba/F3 murine hematopoietic progenitor cells; the other entry of the earlier key: ETV6 (P41212, Transcription factor ETV6)
T1 sequence (Q16620 538-822 limits assumed): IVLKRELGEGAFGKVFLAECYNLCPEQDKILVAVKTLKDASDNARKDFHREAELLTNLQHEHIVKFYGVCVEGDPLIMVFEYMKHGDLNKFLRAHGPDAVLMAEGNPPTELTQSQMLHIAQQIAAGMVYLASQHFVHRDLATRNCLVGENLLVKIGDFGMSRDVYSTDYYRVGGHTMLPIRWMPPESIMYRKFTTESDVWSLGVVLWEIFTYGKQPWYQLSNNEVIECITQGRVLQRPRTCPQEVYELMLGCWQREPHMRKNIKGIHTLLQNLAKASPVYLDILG
Procedure: as §1, §2
(§4) Compounds of Formula (I) were tested for their antiproliferative effect on Ba/F3 cells expressing either Tel-TrkA, Tel-TrkB or Tel-TrkC and an additional panel of 34 selected diverse kinases activated by fusion to the dimerizing partners Bcr or Tel (Abl, A1K, BMX, EphA3, EphB2, FGFR2, FGFR3, FGFR4, FGR, FLT1, FLT3, FLT4, FMS, IGF1R, InsR, JAK1, JAK2, JAK3, KDR, Kit, Lck, Lyn, MER, MET, PDGFRb, RET, RON, Ros-1, Src, Aurora, TIE2, TYK2, Tie1, ZAP70). The antiproliferative effect of these compounds on the different cell lines and on the non transformed cells were tested at 12 different concentrations of 3-fold serially diluted compounds in 384 well plates as described above (in media lacking IL3). The IC50 values of the compounds the different cell lines were determined from dose response curves.
as §3, with “50 nl of serially diluted test compound (10-0.0001 mM in DMSO solution) is added to each well.” left out

[4] = target: T2, Tel-TrkA (Homo sapiens, UniProt P04629); assay: Inhibition of proliferation of Ba/F3 cells expressing Tel-TrkA (BaF3/Tel-TrkA, luciferase/Bright Glo readout); type: cell-based; conditions: read-out: Ba/F3 Tel-TrkA IC 50
T2 construct: dimerization domain of Tel (ETV6) transcription factor (fusion partner, human ETV6 P41212); expressed in transfected cells; host or cells: luciferase expressing Ba/F3 murine hematopoietic progenitor cells; the other entry of the earlier key: ETV6 (P41212, Transcription factor ETV6)
T2 sequence (P04629 510-796 limits assumed): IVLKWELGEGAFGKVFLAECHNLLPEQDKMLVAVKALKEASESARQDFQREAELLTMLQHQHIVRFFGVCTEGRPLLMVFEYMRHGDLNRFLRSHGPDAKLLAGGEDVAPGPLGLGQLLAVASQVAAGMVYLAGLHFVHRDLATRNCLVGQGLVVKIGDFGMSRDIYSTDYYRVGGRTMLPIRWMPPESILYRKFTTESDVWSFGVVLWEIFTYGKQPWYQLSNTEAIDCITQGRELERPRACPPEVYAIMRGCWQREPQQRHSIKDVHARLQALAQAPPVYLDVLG
Procedure: as §1, §2, §4
as §3, with “50 nl of serially diluted test compound (10-0.0001 mM in DMSO solution) is added to each well.” left out

[5] = target: T3, full length rTrkA and mNGF (Rattus norvegicus, UniProt P35739); assay: Inhibition of proliferation of Ba/F3 cells co-expressing full length rTrkA and mNGF (BaF3/TrkA-NFG); type: cell-based; conditions: BaF3 TRKA-NGF cells, CTG readout
T3 construct: co-expressing full length rTrkA and mNGF; expressed in transfected cells; host or cells: Ba/F3 cells
T3 sequence (P35739 33-799): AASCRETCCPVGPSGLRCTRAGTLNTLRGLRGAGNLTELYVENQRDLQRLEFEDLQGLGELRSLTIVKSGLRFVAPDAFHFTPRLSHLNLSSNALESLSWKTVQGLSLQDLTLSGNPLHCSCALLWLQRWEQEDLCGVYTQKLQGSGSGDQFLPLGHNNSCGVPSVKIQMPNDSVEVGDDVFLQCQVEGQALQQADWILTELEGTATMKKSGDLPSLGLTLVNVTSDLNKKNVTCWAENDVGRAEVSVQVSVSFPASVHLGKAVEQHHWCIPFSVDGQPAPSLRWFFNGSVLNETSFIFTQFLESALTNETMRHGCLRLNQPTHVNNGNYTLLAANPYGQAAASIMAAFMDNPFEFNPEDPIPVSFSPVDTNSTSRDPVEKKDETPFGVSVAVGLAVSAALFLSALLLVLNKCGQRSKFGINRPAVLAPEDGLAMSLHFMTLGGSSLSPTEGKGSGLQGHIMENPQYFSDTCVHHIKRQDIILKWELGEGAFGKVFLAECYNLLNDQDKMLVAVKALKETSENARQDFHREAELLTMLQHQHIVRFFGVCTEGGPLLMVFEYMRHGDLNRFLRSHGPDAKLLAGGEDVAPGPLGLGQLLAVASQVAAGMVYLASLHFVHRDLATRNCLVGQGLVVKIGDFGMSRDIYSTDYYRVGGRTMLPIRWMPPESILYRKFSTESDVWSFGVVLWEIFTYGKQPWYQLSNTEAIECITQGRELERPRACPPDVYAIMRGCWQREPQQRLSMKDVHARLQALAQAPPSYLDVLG
T3 sequence (P01139 122-241 partner): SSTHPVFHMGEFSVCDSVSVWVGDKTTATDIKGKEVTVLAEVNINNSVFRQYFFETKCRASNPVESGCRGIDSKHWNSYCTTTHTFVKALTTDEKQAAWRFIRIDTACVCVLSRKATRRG

Row | SMILES | IC50 [1] | IC50 [2] | IC50 [3] | IC50 [4] | BaF3 TRKA-NGF CTG IC 50 [5]
1 | N#Cc1ccc(-c2cnc3ccc(N4CCOCC4c4cccc(F)c4)nn23)cc1 (stereo not drawn) [Table 2-Compound 1] | > 9690 nM | 7 nM |  |  | 
2 | Fc1cccc(C2COCCN2c2ccc3ncc(-c4ccccn4)n3n2)c1 (stereo not drawn) [Table 2-Compound 4] | > 10000 nM | 8.3 nM | 5.8 nM | 8.6 nM | 17 nM
3 | N#Cc1cc(-c2cnc3ccc(N4CCOCC4c4cccc(F)c4)nn23)ccc1F (stereo not drawn) [Table 2-Compound 6] | > 10000 nM | 56 nM | 44 nM | 58 nM | 78 nM
4 | N#Cc1cc(-c2cnc3ccc(N4CCOCC4c4cccc(F)c4)nn23)ccc1N1CCC(O)CC1 (stereo not drawn) [Table 2-Compound 7] | > 10000 nM | 140 nM | 230 nM | 83 nM | 550 nM
5 | CN(C)C(=O)CN1CCN(c2ccc(-c3cnc4ccc(N5CCOCC5c5cccc(F)c5)nn34)cc2C#N)CC1 (stereo not drawn) [Table 2-Compound 8] | > 10000 nM | 5.2 nM | 2.2 nM | 1.6 nM | 29 nM
6 | OCCN1CCN(c2nccc(-c3cccc(-c4cnc5ccc(N6CCC[C@@H]6c6cccc(F)c6)nn45)n3)n2)CC1 [Table 7-Compound 82] | 397 nM |  | 10 nM | 8.9 nM | 5.12 nM
7 | CC(C)NC(=O)CN1CCN(c2cccc(-c3cnc4ccc(N5CCCC5c5cccc(F)c5)nn34)n2)CC1 (stereo not drawn) [Table 7-Compound 96] | 5990 nM |  | 2 nM | 1 nM | 3 nM
8 | OCC1CCCN(c2cccc(-c3cnc4ccc(N5CCCC5c5cccc(F)c5)nn34)n2)C1 (stereo not drawn) [Table 7-Compound 98] | > 11000 nM |  | 9 nM | 6 nM | 13 nM
9 | OCCN1CCN(c2cccc(-c3cnc4ccc(N5CCCC5c5cccc(F)c5)nn34)n2)CC1 (stereo not drawn) [Table 7-Compound 100] | 4380 nM |  | 2 nM | 2 nM | 3 nM
10 | CN(C)CCNC(=O)C1CCN(c2cccc(-c3cnc4ccc(N5CCCC5c5cccc(F)c5)nn34)n2)CC1 (stereo not drawn) [Table 7-Compound 115] | 4840 nM |  | 14 nM | 14 nM | 16 nM
11 | OC1CCN(c2cncc(-c3cnc4ccc(N5CCCC5c5cccc(F)c5)nn34)n2)CC1 (stereo not drawn) [Table 7-Compound 121] | > 10000 nM |  | 3.02 nM | 3.34 nM | 4.88 nM
12 | O=C(CO)NC1CN(c2cccc(-c3cnc4ccc(N5CCC[C@@H]5c5cccc(F)c5)nn34)n2)C1 [Table 7-Compound 132] | > 11000 nM |  | 2 nM | 2 nM | 4 nM
13 | Fc1cccc(C2CCCN2c2ccc3ncc(-c4cccc(-c5ccnc(N6CC7(COC7)C6)n5)n4)n3n2)c1 (stereo not drawn) [Table 7-Compound 136] | 4320 nM |  | 24 nM | 13 nM | 39 nM
